Data taken from article PMC9635472, “Design, synthesis, and biological evaluation of novel ciprofloxacin derivatives as potential anticancer agents targeting topoisomerase II enzyme” (Journal of Enzyme Inhibition and Medicinal Chemistry, 2022).

How the values were obtained:
[1] = test system: Human bladder cancer (T-24) cell line; assay: MTT cell viability assay, T-24 cells; assay type: cell-based; conditions: bladder cancer cell line T-24, treatment for 24 h (table title), means of three experiments, read-out: IC50 (μM* ± SD) T-24
Procedure: (§1) Human bladder cancer (T-24) and human prostate carcinoma (PC-3) cell lines were obtained from American Type Culture Collection (ATCC; Manassas, VA USA). Cells were maintained in Dulbecco’s modified Eagle medium with 10% foetal bovine serum at 37 °C and 5% CO2. All the operations were carried out under strict aseptic conditions. The culture medium was removed to a centrifuge tube containing 9.0 ml complete culture medium and spanned at approximately 125 × g for 5 to 7 min. The cell layer was rinsed with 0.25% (w/v) trypsin- […] EDTA solution by which all traces of serum-containing inhibitor were removed. Trypsin EDTA solution 2.0 to 3.0 ml was added to a flask and cells were monitored under an inverted microscope until the cell layer was dispersed (usually within 5–15 min). A complete growth medium was added (6.0–8.0 ml), and cells were aspirated by gentle pipetting. The cell pellet was suspended with the recommended complete medium and dispensed into a 75 cm^2 culture flask. The culture vessel containing the complete growth medium was placed in the incubator for 24 h to at 37 °C. The cells were treated with different concentrations (0.39, 1.60, 6.25, 25, and 100 μg/ml) of each of the test compounds or doxorubicin, […], then the plates were examined under the inverted microscope and finally the MTT assay was carried out.
(§2) Anti-cancer activity of the newly synthesised compounds was evaluated in vitro against both T-24 and PC-3 cell lines according to the MTT method. Cells were seeded into 96-well plates (flat bottom) at a density of 10 000 cells/well for 24 h. The vial of MTT to be used was reconstituted with 3 ml of medium or balanced salt solution without phenol red and serum. then, a reconstituted MTT vial was added in an amount equal to 10% of the culture medium volume. Cultures were incubated for 2–4 h depending on the cell type and maximum cell density and removed from the incubator and the formazan crystals were dissolved via the addition of an amount of MTT solubilisation solution (M-8910) equal to the original culture medium volume. ROBONIK P2000 spectrophotometer at a wavelength of 570 nm was used to measure the colour intensity spectrophotometrically. The survival curve of both T-24 and PC-3 cells was obtained by plotting the percentage of surviving cells against the drug after each compound. The IC50 value for each test compound and the reference drug doxorubicin was calculated.
(§3) In this study, all the newly synthesised CP derivatives were subjected to anticancer activity evaluation against bladder (T-24) and prostate cancer (PC-3) cell lines. The compounds were evaluated for their activity using 5 doses determinations (100 μg/ml, 25 μg/ml, 6.25 μg/ml, 1.60 μg/ml, and 0.39 μg/ml). Their half-maximal inhibitory concentration (IC50) values were measured. Doxorubicin was chosen as a reference anticancer drug[65].

[2] = test system: human prostate carcinoma (PC-3) cell line; assay: MTT cell viability assay, PC-3 cells; assay type: cell-based; conditions: prostate cancer cell line PC-3, treatment for 24 h (table title), means of three experiments, read-out: IC50 (μM* ± SD) PC-3
Procedure: as §1, §2, §3

[3] = molecular target: T1, human DNA Topo II (Homo sapiens, UniProt P11388); assay: In vitro DNA Topo II-mediated relaxation assay (supercoiled pBR322); assay type: biochemical; conditions: for IC50: means of three experiments, read-out: Topo II IC50 (µM*±SD); for inhibition at 0.1 µM / inhibition at 1 µM / inhibition at 10 µM / inhibition at 100 µM: recombinant Topo II relaxation; for inhibition at 0.1 µM: compound at 0.1 μM, read-out: Percentage of inhibition of Topo II, 0.1 μM; for inhibition at 1 µM: compound at 1 μM, read-out: Percentage of inhibition of Topo II, 1 μM; for inhibition at 10 µM: compound at 10 μM, read-out: Percentage of inhibition of Topo II, 10 μM; for inhibition at 100 µM: compound at 100 μM, read-out: Percentage of inhibition of Topo II, 100 μM
T1 construct: purchased USB Corp., USA
Procedure: DNA Topo II inhibitory activities of the targeted compounds were measured as follows. A mixture of 100 ng of supercoiled pBR322 plasmid DNA (Fermentas, USA) and 2 units of human DNA Topo II (USB Corp., USA) was incubated with and without the prepared compounds in the assay buffer (10 µM Tris-HCl pH 7.9) containing 50 µM NaCl, 4 µM MgCl2, 1 µM EDTA, 1 µM ATP, and 15 mg/ml bovine serum albumin for 30 min at 37 °C. The reaction in a final volume of 10 µl was terminated by the addition of 4 µl of 6 µM EDTA. DNA samples were then electrophoresed on 1% agarose gel containing 0.5 µg/ml ethidium bromide in gel and buffer at high voltage (100–250 v) until the dye front has migrated about 4–6 cm down the gel. with a running buffer of TAE Tris-acetate– EDTA (TAE). Gels were stained for 15 min in water. DNA bands were visualised by transillumination with UV light and quantitated using AlphaI-maker TM (Alpha Innotech Corporation).
Well-known Topo II inhibitor doxorubicin was used as a positive control. The reaction products of Topo II relaxation assays were analysed by electrophoretic mobility and developed in ethidium bromide in the presence of UV light. The inhibitory activities were evaluated at 4 concentrations of 100, 10, 1, and 0.1 μM for all compounds as shown in (Figure 6). Topo II inhibitory activities of the tested compounds are summarised in (Table 2).

[4] = test system: active caspase-3; assay: Active caspase-3 ELISA in T-24 cells; assay type: cell-based, human; conditions: 6 at 5.68 μM, 8a at 3.36 μM, means of three experiments
Procedure: The level of the apoptotic marker caspase-3 was measured using The Invitrogen Caspase-3 (active) Human ELISA Kit. The procedure of the used kit was done according to the manufacturer’s instructions.
Caspase-3 (a key effector enzyme) plays an important role in apoptosis since its activation leads to catalysing specific enzymes responsible for DNA fragmentation, which leads to cell death. Apoptosis induction in T-24 cells by compounds 6 and 8a was investigated via caspase 3, compared to doxorubicin as a reference drug.

T1 sequence (P11388 whole entry): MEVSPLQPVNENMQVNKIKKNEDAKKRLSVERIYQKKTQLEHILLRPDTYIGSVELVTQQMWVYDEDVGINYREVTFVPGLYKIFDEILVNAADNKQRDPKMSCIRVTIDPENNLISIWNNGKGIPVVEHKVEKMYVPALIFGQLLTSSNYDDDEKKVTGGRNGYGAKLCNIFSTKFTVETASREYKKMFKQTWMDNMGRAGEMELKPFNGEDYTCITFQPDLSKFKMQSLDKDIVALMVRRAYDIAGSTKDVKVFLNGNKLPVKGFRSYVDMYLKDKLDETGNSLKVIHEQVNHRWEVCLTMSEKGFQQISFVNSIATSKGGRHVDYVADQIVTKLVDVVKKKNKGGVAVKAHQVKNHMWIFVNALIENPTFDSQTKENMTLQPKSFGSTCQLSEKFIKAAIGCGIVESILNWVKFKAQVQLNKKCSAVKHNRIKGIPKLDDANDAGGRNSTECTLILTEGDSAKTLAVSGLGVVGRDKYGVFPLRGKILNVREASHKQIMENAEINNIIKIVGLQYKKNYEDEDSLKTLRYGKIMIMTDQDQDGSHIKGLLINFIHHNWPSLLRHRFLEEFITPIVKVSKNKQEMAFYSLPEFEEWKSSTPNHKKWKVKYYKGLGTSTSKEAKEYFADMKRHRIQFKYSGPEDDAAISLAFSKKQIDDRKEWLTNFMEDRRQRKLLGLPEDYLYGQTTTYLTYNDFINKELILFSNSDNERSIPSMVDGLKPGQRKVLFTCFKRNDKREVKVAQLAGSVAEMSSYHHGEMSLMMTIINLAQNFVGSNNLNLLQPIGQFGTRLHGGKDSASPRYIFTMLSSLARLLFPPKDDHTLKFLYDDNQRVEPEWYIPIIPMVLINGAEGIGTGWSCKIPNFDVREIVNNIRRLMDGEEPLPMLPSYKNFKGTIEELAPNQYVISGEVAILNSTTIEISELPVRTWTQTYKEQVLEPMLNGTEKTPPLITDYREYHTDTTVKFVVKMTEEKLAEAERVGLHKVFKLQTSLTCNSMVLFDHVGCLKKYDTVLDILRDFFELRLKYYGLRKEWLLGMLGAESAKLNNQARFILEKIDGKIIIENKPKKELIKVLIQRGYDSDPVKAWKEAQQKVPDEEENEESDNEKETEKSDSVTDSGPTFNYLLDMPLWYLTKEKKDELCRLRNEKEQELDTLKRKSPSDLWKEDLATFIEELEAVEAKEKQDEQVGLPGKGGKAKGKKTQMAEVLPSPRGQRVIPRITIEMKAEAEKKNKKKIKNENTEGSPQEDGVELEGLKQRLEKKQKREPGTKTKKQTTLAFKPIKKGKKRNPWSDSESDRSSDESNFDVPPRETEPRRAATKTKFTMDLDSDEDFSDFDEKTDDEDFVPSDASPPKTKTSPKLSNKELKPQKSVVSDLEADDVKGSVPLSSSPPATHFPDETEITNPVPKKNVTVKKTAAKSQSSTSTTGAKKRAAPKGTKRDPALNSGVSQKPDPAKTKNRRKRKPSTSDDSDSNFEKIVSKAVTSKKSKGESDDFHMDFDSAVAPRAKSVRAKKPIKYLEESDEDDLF

| Compound | IC50 [1] [µM] | IC50 [2] [µM] | IC50 [3] [µM] | inhibition at 0.1 µM [3] [%] | inhibition at 1 µM [3] [%] | inhibition at 10 µM [3] [%] | inhibition at 100 µM [3] [%] | melting point [°C] | Caspase-3 conc. (pg/ml* ± SD) [4] [pg/mL] |
| --- | --- | --- | --- | --- | --- | --- | --- | --- | --- |
| CC(=NNC(=O)CN1CCN(c2cc3c(cc2F)c(=O)c(C(=O)O)cn3C2CC2)CC1)c1ccc(Cl)cc1 [Compound 7b, 7-(4-(2-(2-(1-(4-Chlorophenyl)ethylidene)hydrazinyl)-2-oxoethyl)-piperazin-1-yl)-1-cyclopropyl-6-fluoro-4-oxo-1,4-dihydroquinoline-3-carboxylic acid] | 11.5 ± 0.63 | 19 ± 0.96 | 3.34 ± 0.18 | 18.4 | 34 | 60.3 | 85.2 | 178 to 180 | – |
| COc1cccc2c1C(=O)c1c(O)c3c(c(O)c1C2=O)C[C@@](O)(C(=O)CO)C[C@@H]3O[C@H]1C[C@H](N)[C@H](O)[C@H](C)O1 [Doxorubicin, reference compound] | 29.1 ± 1.56 | 23.1 ± 1.18 | 1.72 ± 0.08 | – | – | – | – | – | 598.8 ± 8.63 |

The remaining compounds from weak to strong by IC50 [1], led by results:

| IC50 [1] [µM] | IC50 [2] [µM] | IC50 [3] [µM] | inhibition at 0.1 µM [3] [%] | inhibition at 1 µM [3] [%] | inhibition at 10 µM [3] [%] | inhibition at 100 µM [3] [%] | melting point [°C] | Compound | Caspase-3 conc. (pg/ml* ± SD) [4] [pg/mL] |
| --- | --- | --- | --- | --- | --- | --- | --- | --- | --- |
| 10.1 ± 0.55 | 3.25 ± 0.167 | 1.69 ± 0.09 | 24.8 | 37.7 | 72.6 | 90.2 | 221 to 223 | O=C(CN1CCN(c2cc3c(cc2F)c(=O)c(C(=O)O)cn3C2CC2)CC1)NNCC(=O)c1ccc([N+](=O)[O-])cc1 [Compound 10c, 1-Cyclopropyl-6-fluoro-7-(4-(2-(2-(2-(4-nitrophenyl)-2-oxoethyl)-hydrazinyl)-2-oxoethyl)piperazin-1-yl)-4-oxo-1,4-dihydroquinoline-3-carboxylic acid] | – |
| 4.35 ± 0.24 | 67.2 ± 3.42 | 2.58 ± 0.14 | 23.6 | 40.3 | 57 | 86.5 | 186 to 188 | O=C(CN1CCN(c2cc3c(cc2F)c(=O)c(C(=O)O)cn3C2CC2)CC1)NNC(=O)Nc1ccc(Cl)c(C(F)(F)F)c1 [Compound 9a, 7-(4-(2-(2-((4-Chloro-3-(trifluoromethyl)phenyl)carbamoyl)-hydrazinyl)-2-oxoethyl)piperazin-1-yl)-1-cyclopropyl-6-fluoro-4-oxo-1,4-dihydroquinoline-3-carboxylic acid] | – |
| 3.88 ± 0.21 | 9.35 ± 0.48 | 4.99 ± 0.27 | 13.7 | 27.9 | 55.9 | 83.6 | 256 to 258 | O=C(CN1CCN(c2cc3c(cc2F)c(=O)c(C(=O)O)cn3C2CC2)CC1)NN=C1CCCCC1 [Compound 7a, 7-(4-(2-(2-Cyclohexylidenehydrazinyl)-2-oxoethyl)piperazin-1-yl)-1-cyclopropyl-6-fluoro-4-oxo-1,4-dihydroquinoline-3-carboxylic acid] | – |
